Measured values: patent US12053511B2, “Cystatin C and Cystatin 9 to treat gut inflammation caused by thermal injury” (priority 2016, dated 2024)

System: NDM-1 Kp
Assay: LD90 NDM-1 Kp pneumonia murine model, survival
Assay type: in vivo, Balb/c mice
Conditions: colistin 20 or 1.25 mg/kg/day, days 4 and 5 PI
Text: To establish the optimal CST route, timing, and dosage regimen against MDR NDM-1 Kp-induced pneumonia, Balb/c mice (n=10-20 mice/gp) were infected with an i.n. LD90 and treated at various times and doses as depicted in Table 1. Doses included i.n. and/or i.p. single rCST9, rCSTC or a combination of rCST9 and rCSTC. Mice that were infected with NDM-1 Kp but were not treated served as controls. rCST treatments by routes, doses, or as a combined therapy were studied to select an optimal regimen.
Evaluate optimal timing and dosage of rCST-9 and/or PEG-rCST9 administration post-infection. Balb/c mice (n=10-20 mice/gp) were intranasally (i.n.) infected with approximately 1.82×10^8 CFU/mouse of Kp 2146 (as established hereinabove) then treated i.n. or i.p. with rCST9, human recombinant cystatin C (rCSTC) or a combination of rCST9 and rCSTC as depicted in Table 1. Kp infected alone served as controls. […] Therefore, as a comparative control to rCST9, the inventors evaluated the effectiveness of rCSTC against pneumonia using the same doses of 50 and/or 500 pg/mouse.
The potential for rCST9/rCSTC treatment to extend the period before successful antibiotic intervention was initiated was determined. For these evaluations, suboptimal doses of colistin were used to determine the extent of protection afforded by rCSTs as well as to minimize side effects/toxicity caused by this antibiotic (n=10 mice/gp). Doses, timing, and route of colistin were chosen based on efficacy studies of colistin in a mouse model of severe, established MDR pneumonia or a very low dose of colistin then adjusted to suboptimal levels for this study. LD90 NDM-1 Kp-challenged mice were treated with the rCST9/rCSTC 3 d i.p. treatment and then given 2 doses of colistin at 20 mg/kg/day or 1.25 mg/kg/day on day 4 and 5 PI.
Mouse model of pneumonia and CST treatments. Eight-week old female Balb/c mice weighing between 21 and 24 grams (Jackson Laboratories) were housed in an Association for Assessment and Accreditation for Laboratory Animal Care (AAALAC)-approved housing facility and permitted to adjust to their environment for 7 d prior to procedures, receiving free access to food and water throughout the study. All procedures were approved by the University of Texas Medical Branch IACUC and performed humanely with minimal suffering. […] One hour PI, mice were administered an i.n. dose of rCST9/rCSTC (50 pg of each) and then, this group of mice was given an i.p. injection of rCST9/rCSTC (500 pg of each) 3 d PI. A parallel group of infected mice received only a single i.p. dose of rCST9/rCSTC, PEG-rCST9/rCSTC (500 pg of each), or PEG-rCST9 (500 pg) alone 3 d PI. NDM-1-Kp infected mice alone or uninfected mice served as controls. Survival was observed up to 15 days post treatment. Additional groups (n=4 mice/group) of infected and CST-treated mice were euthanized at selected time points (24 h, 72 h, 5 and/or 10 d PI) to harvest lungs. Additional groups were treated with i.n. rCSTs (50 pg of each) as described above but they were euthanized at 30 min, 1 h and 3 h to collect lungs for the quantification of lipid peroxidase by-product, known as malondialdehyde (MDA), as described below.
Additional groups of mice (n=15 mice/group) were treated with the optimal CST treatment regimens of an i.n. dose of rCST9/rCSTC (50 pg of each), followed by an i.p. injection of rCST9/rCSTC (500 pg of each) 3 d PI or the single i.p. dose of rCST9/rCSTC (500 pg of each). At 4 d PI, mice were given 2 separate i.p. injections of colistin (JHP Pharmaceuticals, LLC; colistimethate sodium; 20 mg/kg/mouse or 1.25 mg/kg/day) 8 h apart for 2 d.

Substance: colistin [reference compound]
- survival protection compared to rCST monotherapy: neither of the antibiotic doses surpassed protection afforded by the rCST monotherapy
